Laboratory results from article PMC11259170, “Small-molecule probe for IBD risk variant GPR65 I231L alters cytokine signaling networks through positive allosteric modulation” (Science Advances, 2024).
pEC50: −log10 of the molar value. Read-outs that look alike come from different tables or passages of the source.

Columns and labels:
hGPR65 = biological target: T1, hGPR65 (Homo sapiens, UniProt Q8IYL9); experiment: cAMP detection in HeLa expression cell line, hGPR65; assay type: cell-based; settings: for Emax: HeLa, read-out: hGPR Max Activity %; for EC50: hGPR EC50 (uM); for cAMP production relative to BRD2813, hGPR65: pH 7.2
T1 construct: expressed in transfected cells; host or cells: HeLa (ATCC CCL-2), lentiviral transduction, pLX317
T1 sequence (Q8IYL9 whole entry): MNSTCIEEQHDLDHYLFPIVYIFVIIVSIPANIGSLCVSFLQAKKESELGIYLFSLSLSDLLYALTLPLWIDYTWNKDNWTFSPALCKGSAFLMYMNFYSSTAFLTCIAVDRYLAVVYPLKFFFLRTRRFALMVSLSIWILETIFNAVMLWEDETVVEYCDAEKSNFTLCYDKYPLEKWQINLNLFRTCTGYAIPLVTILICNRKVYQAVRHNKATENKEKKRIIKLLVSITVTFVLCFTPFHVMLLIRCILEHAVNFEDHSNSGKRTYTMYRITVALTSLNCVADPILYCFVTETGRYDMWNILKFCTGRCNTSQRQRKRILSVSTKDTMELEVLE
Protocol: (§1) HeLa stable expression cell lines were produced by lentiviral transduction. Briefly, lentiviral plasmids for each GPCR with a C-terminal V5 Tag ([…]) were made in a pLX317 backbone using competent Escherichia coli (New England Biolabs, C3050H). Lenti-X 293 T (Takara, 632810) cells were transfected with the lentiviral plasmids to produce virus. Low-passage HeLa cells (American Type Culture Collection, CCL-2) were then transduced with lentivirus. After 48 hours, HeLa cells were cultured under selection with puromycin (3 μg/ml) and allowed to recover and expand before storing stocks in liquid nitrogen.
(§2) cAMP was measured in cells using the Lance Ultra cAMP Kit. HeLa cells were cultured under puromycin (3 μg/ml) selection. One day before the experiment, cells were seeded in T75 flasks and allowed to adhere overnight. On the day of the experiment, cells were washed twice with Dulbecco’s PBS and lifted using prewarmed 1× versene solution (Gibco, 15040066). Cells were counted in HBSS (Gibco, 14025092) and then resuspended in stimulation buffer prepared according to the manufacturer’s instructions and adjusted to pH 7.2 using 1 M sodium hydroxide. Cells were added to the plate at a density of 1500 cells per well in white opaque 384-well assay ready microplates containing 100 nl of 10 mM compound in DMSO. Cells were stimulated for 30 min at RT, then lysed and incubated with detection reagents for 1 hour in the dark at RT. Plates were read on BMG Labtech PHERAstar FSX (excitation, 337 nm; emission, 620 and 665 nm). Data analysis was performed using GraphPad Prism.

mGPR65 = biological target: T2, mGPR65 (Mus musculus, UniProt Q61038); experiment: cAMP detection in HeLa expression cell line, mGPR65; assay type: cell-based; settings: for pEC50: read-out: mGPR EC50; for Emax: HeLa, read-out: mGPR Max Activity %; for EC50: mGPR EC50 (uM); for cAMP production relative to BRD2813, mGPR65: pH 7.2
T2 construct: expressed in transfected cells; host or cells: HeLa (ATCC CCL-2), lentiviral transduction, pLX317
T2 sequence (Q61038 whole entry): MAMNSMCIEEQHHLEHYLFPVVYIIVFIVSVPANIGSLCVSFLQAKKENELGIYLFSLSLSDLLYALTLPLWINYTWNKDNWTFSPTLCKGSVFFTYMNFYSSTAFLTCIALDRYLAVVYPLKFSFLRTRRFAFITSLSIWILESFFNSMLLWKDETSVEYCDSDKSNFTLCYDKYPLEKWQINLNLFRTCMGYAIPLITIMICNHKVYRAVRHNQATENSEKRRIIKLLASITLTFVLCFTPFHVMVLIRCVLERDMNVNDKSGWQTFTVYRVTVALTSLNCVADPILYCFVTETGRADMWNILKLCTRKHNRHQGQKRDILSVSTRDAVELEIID
Protocol: as §1, §2

[1] = test system: GFP-expressing HeLa cells; experiment: cAMP detection in HeLa expression cell line, GFP control; assay type: cell-based, human; settings: Homo sapiens, HeLa; for Emax: relative to 100uM forskolin (100%) and DMSO (0%), read-out: GFP Max Activity %
Protocol: as §1, §2

[2] = 1st hGPR column pair, NA = no activity, read-out: hGPR EC50
[3] = 2nd hGPR column pair, NA = no activity, read-out: hGPR EC50
[4] = 1st hGPR column pair, relative to 100uM forskolin (100%) and DMSO (0%), NA = no activity
[5] = 2nd hGPR column pair, relative to 100uM forskolin (100%) and DMSO (0%), NA = no activity
[6] = 1st mGPR column pair, NA = no activity
[7] = 2nd mGPR column pair, NA = no activity
[8] = 2nd mGPR column pair, relative to 100uM forskolin (100%) and DMSO (0%), NA = no activity
[9] = relative to 100uM forskolin (100%) and DMSO (0%), NA = no activity
[10] = 2nd GFP column pair, NA = no activity
[11] = 1st GFP column pair, NA = no activity

Compound	pEC50 (hGPR65; [2])	pEC50 (hGPR65; [3])	Emax (hGPR65; [4]) [%]	Emax (hGPR65; [5]) [%]	pEC50 (mGPR65; [6])	pEC50 (mGPR65; [7])	Emax (mGPR65; [8]) [%]	Emax (mGPR65; [9]) [%]	pEC50 [1, 11]	Emax [1, 11] [%]	further results
CCCc1cc(-c2cc(O)n3ncc(C(=O)Nc4ccccc4)c3n2)no1 [BRD0124]	5.95	5.76	62.1	71.8	6.61	6.82	56.2	63			pEC50 [1, 10]: 4.61; Emax [1, 10]: 2.25%
COCc1ccc(-c2cc(O)n3ncc(C(=O)NC4CCOCC4)c3n2)cc1 [BRD0202]									4.81	6.11	
Cc1n[nH]c(C)c1CCc1cc(O)n2ncc(C(=O)Nc3ccc(Cl)cc3)c2n1 [BRD1303]					4.80			10.7	4.41	5.8	
Cc1ccc(NC(=O)c2cnn3c(O)cc(-c4cccc(C)c4)nc23)cc1 [BRD1420]	5.43		22.9		6.33			2.06	6.50	2.36	
COCc1ccc(-c2cc(O)n3ncc(C(=O)Nc4ccccc4C)c3n2)cc1 [BRD2974]					4.58			8.27	5.44	19.4	
O=C(O)c1cnn2c(O)cc(-c3ccccc3)nc12 [BRD3374]									5.42	4.66	
Cc1ccc(NC(=O)c2cnn3c(O)cc(-c4ccc(N5CCCC5)cc4)nc23)cc1 [BRD4336]	5.05		14.5						4.86	9.65	
Cc1cnc(NC(=O)c2cnn3c(O)cc(-c4ccc(COC(C)C)cc4)nc23)nc1 [BRD5076]	5.70	5.78	72.4	69.9	5.94	5.74	56.3	59.9			
Cc1ccc(NC(=O)c2cnn3c(O)cc(-c4ccc(C(=O)NC(C)C)cc4)nc23)cc1 [BRD5085]	5.56	5.55	46.6	31.2	6.36	5.38	32.7	98.4			
COCc1ccc(-c2cc(O)n3ncc(C(=O)Nc4ccc(OC)cc4)c3n2)cc1 [BRD5326]			83	82.7			55.6	56.3			EC50 (hGPR65; NA = no activity): 1.26 µM; pEC50 (hGPR65; hGPR EC50, NA = no activity): 6.04; cAMP production relative to BRD2813, hGPR65 (hGPR65): little effect on cAMP production; EC50 (mGPR65; [7]): 1.26 µM; EC50 (mGPR65; NA = no activity): 1.27 µM; cAMP production relative to BRD2813, mGPR65 (mGPR65): slight improvement in mGPR65 activity
COc1cccc(Cc2cc(O)n3ncc(C(=O)Nc4ccc(C)cc4)c3n2)c1 [BRD5386]					5.70	5.66	16.4	39.5			pEC50 (hGPR65; NA = no activity, read-out: hGPR EC50): 5.71; hGPR Max Activity (hGPR65; [9]): 4.575%; pEC50 (mGPR65; 3rd mGPR column pair, NA = no activity): 6.37; mGPR Max Activity (mGPR65; [9]): 21.71%
O=C(Nc1ccccc1)c1cnn2c(O)cc(COc3ccccc3)nc12 [BRD5802]	4.05		55.7						4.38	5.04	
Cc1ccc(NC(=O)c2cnn3c(O)cc(-c4ccc(COC(C)C)cc4)nc23)cc1 [BRD5928]			82.5	80			54.1	61.1			EC50 (hGPR65; NA = no activity): 0.271 µM; pEC50 (hGPR65; hGPR EC50, NA = no activity): 6.20; cAMP production relative to BRD2813, hGPR65 (hGPR65): induced high hGPR65 activity; EC50 (mGPR65; [7]): 0.494 µM; EC50 (mGPR65; NA = no activity): 0.635 µM; cAMP production relative to BRD2813, mGPR65 (mGPR65): substantially increasing cAMP production
Cc1ccc(NC(=O)c2cnn3c(O)cc(COc4ccccc4)nc23)cc1 [BRD6694]	5.10	5.33	20.7	22.4		4.71	5.79				
CCOCc1ccc(-c2cc(O)n3ncc(C(=O)Nc4ccc(C)cc4)c3n2)cc1 [BRD6745]	6.18	6.38	83.5	81.6	6.26	6.29	48.9	52.9			
Cc1ccc(NC(=O)c2cnn3c(O)cc(-c4ccc5ccccc5c4)nc23)cc1 [BRD7102]	6.56	6.82	79.7	72.5	6.72	6.57	35.2	40.7			potency and total cAMP production relative to BRD2813 (hGPR65; receptor not given): improved potency but had little effect on total cAMP production
Cc1ccc(NC(=O)c2cnn3c(O)cc(Cc4ccc5ccccc5c4)nc23)cc1 [BRD7330]											Emax (mGPR65; first pair, relative to 100uM forskolin (100%) and DMSO (0%)): 11.6%; pEC50 (mGPR65; SAR cAMP assay, first EC50/Max pair): 6.42; pEC50 ([1]; SAR cAMP assay, first EC50/Max pair of GFP control columns): 5.63; Emax ([1]; first pair): 1.96%
CCN(CC)C(=O)c1cnn2c(O)cc(-c3ccc(COC)cc3)nc12 [BRD7582]	5.58		4.89						5.20	10.8	
O=C(O)c1cnn2c(O)cc(-c3ccc(F)cc3)nc12 [BRD7884]									5.04	3.25	
COc1ncccc1-c1cc(O)n2ncc(C(=O)Nc3ccc(Cl)cc3)c2n1 [BRD8007]					5.66			20	5.21	6.72	
CCn1cc(Cl)c(-c2cc(O)n3ncc(C(N)=O)c3n2)n1 [BRD8068]					4.79			13.4	4.28	40.7	
COc1ccc(-c2cc(O)n3ncc(C(=O)Nc4ccc(C)cc4)c3n2)cc1 [BRD9965]	6.13	6.03	73.8	66	4.62	4.49	-39	-56.6			
COCc1ccc(-c2cc(O)n3ncc(C(=O)Nc4ccc(NC(C)=O)cc4)c3n2)cc1 [BRD9998]	4.75		1.34						4.04	3.25	
